From PubChem BioAssay (NCI)
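Results reflect a 48-hour exposure of cells in 96-well plates to compound at five concentrations. TGI denotes the concentration required for complete inhibition of growth.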

Legend:
Test in all cases: DTP human tumour cell line panel, 48 h
[1] = system: HOP-62 NSCLC
[2] = system: IGROV1 ovarian
[3] = system: K-562 leukemia
[4] = system: MCF7 breast
[5] = system: MDA-MB-231 breast
[6] = system: MDA-N
[7] = system: SF-539 CNS
[8] = system: U251 CNS
[9] = system: UACC-257 melanoma
[10] = system: UACC-62 melanoma

## Cc1ccc(S(=O)(=O)N2CCCSCCN(S(=O)(=O)c3ccc(C)cc3)CCCSCC2)cc1
[1]
  TGI: > 100 µM
[2]
  TGI: > 100 µM
[3]
  TGI: > 100 µM
[4]
  TGI: > 100 µM
[5]
  TGI: > 100 µM
[6]
  TGI: > 100 µM
[7]
  TGI: > 100 µM
[8]
  TGI: > 100 µM
[9]
  TGI: > 100 µM
[10]
  TGI: > 100 µM

## O=c1c2c3c(sc2nc2n1N=C(c1ccc([N+](=O)[O-])cc1)CS2)CCCC3
[1]
  TGI: > 100 µM
[2]
  TGI: > 100 µM
[3]
  TGI: > 100 µM
[4]
  TGI: > 100 µM
[5]
  TGI: > 100 µM
[6]
  TGI: > 100 µM
[7]
  TGI: > 100 µM
[8]
  TGI: > 100 µM
[9]
  TGI: > 100 µM
[10]
  TGI: > 100 µM

## NC(=S)N/N=C1\CCCCC1C(O)(C(F)(F)Cl)C(F)(F)Cl (stereo not given)
[1]
  TGI: > 10 µM
[2]
  TGI: > 10 µM
[3]
  TGI: > 10 µM
[4]
  TGI: > 10 µM
[5]
  TGI: > 10 µM
[6]
  TGI: > 10 µM
[7]
  TGI: > 10 µM
[8]
  TGI: > 10 µM
[9]
  TGI: > 10 µM
[10]
  TGI: > 10 µM

## C/C(=C1\C(=O)C(c2ccccc2)N(c2ccccc2)C1=O)c1ccc(Cl)cc1 (stereo not given)
[1]
  TGI: 84.5 µM
[2]
  TGI: 40.5 µM
[3]
  TGI: > 100 µM
[4]
  TGI: > 100 µM
[5]
  TGI: 57.6 µM
[6]
  TGI: 48 µM
[7]
  TGI: 48.9 µM
[8]
  TGI: 29.4 µM
[9]
  TGI: 30.8 µM
[10]
  TGI: 30.8 µM
